The results in this text go back to PMC13181795, “Structural Basis for BD1-Preferring 2,4-Disubstituted Pyrimidine BRDT Inhibitors” (Journal of Medicinal Chemistry, 2026).

Each structure is given as a SMILES string.

The nature of this data set: Metabolic stability in male mouse liver microsomes. Format: in vitro ADME. A general note: Liver microsomes are vesicles of endoplasmic reticulum, rich in cytochrome P450 enzymes.

In the case of `O=C(O)Cc1ccccc1Nc1c(Cl)cccc1Cl` [Diclofenac], the “Scaled-up CLint” value came out at 130 mL/min/kg.
